# Laboratory results published in PMC5218480 (PLoS ONE, 2017).
# Tested on: MV-4-11 cells
# Experiment: Gene expression microarray analysis (Affymetrix PrimeView) and GSEA
# Type: cell-based, human
# Set-up: RFU PODN (11730768_x_at) / Fold change /veh PODN (11730768_x_at) / RFU LINC00158 (11744669_a_at) / Fold change /veh LINC00158 (11744669_a_at) / RFU DUSP10 (11751237_a_at) / Fold change /veh DUSP10 (11751237_a_at) / RFU ID3 (11757404_x_at) / Fold change /veh ID3 (11757404_x_at) / RFU PLEKHG5 (11737974_s_at) / Fold change /veh PLEKHG5 (11737974_s_at) / RFU LRRC4B (11730491_at) / Fold change /veh LRRC4B (11730491_at) / RFU GIMAP4 (11747438_a_at) / Fold change /veh GIMAP4 (11747438_a_at) / RFU KRT8 (11758183_x_at) / Fold change /veh KRT8 (11758183_x_at) / RFU CNN1 (11734310_a_at) / Fold change /veh CNN1 (11734310_a_at) / RFU VPS37D (11726825_at) / Fold change /veh VPS37D (11726825_at) / RFU C10orf10 (11716522_x_at) / Fold change /veh C10orf10 (11716522_x_at) / RFU KIR2DL2 /// KIR2DL4 /// KIR2DL5A /// KIR2DL5B /// KIR2DS1 /// KIR2DS2 /// KIR2DS3 /// KIR2DS4 /// KIR3DL3 /// KIR3DL3 /// KIR3DS1 (11738374_at) / Fold change /veh KIR2DL2 /// KIR2DL4 /// KIR2DL5A /// KIR2DL5B /// KIR2DS1 /// KIR2DS2 /// KIR2DS3 /// KIR2DS4 /// KIR3DL3 /// KIR3DL3 /// KIR3DS1 (11738374_at) / RFU C1QL1 (11718748_at) / Fold change /veh C1QL1 (11718748_at) / RFU TMPRSS4 (11747572_a_at) / Fold change /veh TMPRSS4 (11747572_a_at) / RFU HAMP (11756126_x_at) / Fold change /veh HAMP (11756126_x_at) / RFU RNFT2 (11725882_a_at) / Fold change /veh RNFT2 (11725882_a_at) / RFU NR4A2 (11747474_a_at) / Fold change /veh NR4A2 (11747474_a_at) / RFU ABCC12 (11746883_a_at) / Fold change /veh ABCC12 (11746883_a_at) / RFU TMEM136 (11760407_x_at) / Fold change /veh TMEM136 (11760407_x_at) / RFU CLDN22 /// WWC2 (11732394_at) / Fold change /veh CLDN22 /// WWC2 (11732394_at) / RFU HLA-DPB1 (11760878_x_at) / Fold change /veh HLA-DPB1 (11760878_x_at) / RFU SPINT1 (11716480_a_at) / Fold change /veh SPINT1 (11716480_a_at) / RFU GAP43 (11754022_s_at) / Fold change /veh GAP43 (11754022_s_at) / RFU A4GNT (11735810_at) / Fold change /veh A4GNT (11735810_at) / RFU PRB3 (11715151_x_at) / Fold change /veh PRB3 (11715151_x_at) / RFU TUBB4B (11761932_at) / Fold change /veh TUBB4B (11761932_at) / RFU CAPN14 (11732068_a_at) / Fold change /veh CAPN14 (11732068_a_at) / RFU TMCC2 (11721928_a_at) / Fold change /veh TMCC2 (11721928_a_at) / RFU IRGQ (11745062_a_at) / Fold change /veh IRGQ (11745062_a_at) / RFU FAM174B (11720279_a_at) / Fold change /veh FAM174B (11720279_a_at) / RFU TMPRSS4 (11748680_a_at) / Fold change /veh TMPRSS4 (11748680_a_at) / RFU FAM212B (11763350_a_at) / Fold change /veh FAM212B (11763350_a_at) / RFU PLEKHG5 (11743358_a_at) / Fold change /veh PLEKHG5 (11743358_a_at) / RFU ZSCAN30 (11745921_a_at) / Fold change /veh ZSCAN30 (11745921_a_at) / RFU CMKLR1 (11741424_a_at) / Fold change /veh CMKLR1 (11741424_a_at) / RFU LOC101060620 /// MAPK8IP1 (11723275_at) / Fold change /veh LOC101060620 /// MAPK8IP1 (11723275_at) / RFU SPTSSB (11747773_x_at) / Fold change /veh SPTSSB (11747773_x_at) / RFU PRSS12 (11739890_at) / Fold change /veh PRSS12 (11739890_at) / RFU BIN1 (11741810_x_at) / Fold change /veh BIN1 (11741810_x_at) / RFU WNT11 (11732464_a_at) / Fold change /veh WNT11 (11732464_a_at) / RFU C10orf10 (11716521_a_at) / Fold change /veh C10orf10 (11716521_a_at) / RFU C5orf56 (11738089_at) / Fold change /veh C5orf56 (11738089_at) / RFU CYB561 (11721691_x_at) / Fold change /veh CYB561 (11721691_x_at) / RFU ANKRD19P (11752326_a_at) / Fold change /veh ANKRD19P (11752326_a_at) / RFU OR2T12 /// OR2T33 /// OR2T8 (11738714_s_at) / Fold change /veh OR2T12 /// OR2T33 /// OR2T8 (11738714_s_at) / RFU VCAN (11748164_a_at) / Fold change /veh VCAN (11748164_a_at) / RFU JSRP1 (11732532_at) / Fold change /veh JSRP1 (11732532_at) / RFU KRTAP10-11 (11738290_x_at) / Fold change /veh KRTAP10-11 (11738290_x_at) / RFU MYO3A (11730013_a_at) / Fold change /veh MYO3A (11730013_a_at) / RFU EBF3 (11725865_a_at) / Fold change /veh EBF3 (11725865_a_at) / RFU CAMK2N1 (11719241_x_at) / Fold change /veh CAMK2N1 (11719241_x_at) / RFU C5orf56 (11738088_a_at) / Fold change /veh C5orf56 (11738088_a_at) / RFU OLFML3 (11715873_a_at) / Fold change /veh OLFML3 (11715873_a_at) / RFU LOC100653217 /// NTM (11731650_a_at) / Fold change /veh LOC100653217 /// NTM (11731650_a_at) / RFU MAPK11 (11762145_a_at) / Fold change /veh MAPK11 (11762145_a_at) / RFU FIZ1 (11724087_x_at) / Fold change /veh FIZ1 (11724087_x_at) / RFU OASL (11726364_x_at) / Fold change /veh OASL (11726364_x_at) / RFU SOX15 (11748057_x_at) / Fold change /veh SOX15 (11748057_x_at) / RFU CD79A (11719716_a_at) / Fold change /veh CD79A (11719716_a_at) / RFU HIST1H1D (11736915_at) / Fold change /veh HIST1H1D (11736915_at) / RFU CASKIN2 (11723855_a_at) / Fold change /veh CASKIN2 (11723855_a_at) / RFU LOC730098 (11760151_x_at) / Fold change /veh LOC730098 (11760151_x_at) / RFU OR4N2 (11742367_at) / Fold change /veh OR4N2 (11742367_at) / RFU PRRT2 (11749266_a_at) / Fold change /veh PRRT2 (11749266_a_at) / RFU SNX32 (11753110_a_at) / Fold change /veh SNX32 (11753110_a_at) / RFU CDHR5 (11726645_a_at) / Fold change /veh CDHR5 (11726645_a_at) / RFU RCAN1 (11760418_a_at) / Fold change /veh RCAN1 (11760418_a_at) / RFU FAM167A (11723789_a_at) / Fold change /veh FAM167A (11723789_a_at) / RFU FAM26E (11764081_at) / Fold change /veh FAM26E (11764081_at) / RFU ISYNA1 (11749810_s_at) / Fold change /veh ISYNA1 (11749810_s_at) / RFU ACY1 (11761880_at) / Fold change /veh ACY1 (11761880_at) / RFU 11764098_at / Fold change /veh 11764098_at / RFU SAMD14 (11745864_x_at) / Fold change /veh SAMD14 (11745864_x_at) / RFU NPB (11741838_a_at) / Fold change /veh NPB (11741838_a_at) / RFU TMPRSS6 (11731388_a_at) / Fold change /veh TMPRSS6 (11731388_a_at) / RFU KRTAP10-2 (11738614_at) / Fold change /veh KRTAP10-2 (11738614_at) / RFU ARHGAP8 /// PRR5-ARHGAP8 (11727945_x_at) / Fold change /veh ARHGAP8 /// PRR5-ARHGAP8 (11727945_x_at) / RFU KRTAP5-7 /// NADSYN1 (11734609_at) / Fold change /veh KRTAP5-7 /// NADSYN1 (11734609_at) / RFU RASL12 (11751679_a_at) / Fold change /veh RASL12 (11751679_a_at) / RFU CDKN2B (11736163_a_at) / Fold change /veh CDKN2B (11736163_a_at) / RFU PRF1 (11729649_at) / Fold change /veh PRF1 (11729649_at) / RFU, ZNF638 /// ZNF638-IT1 / Fold change vs veh, ZNF638 /// ZNF638-IT1 / RFU, PANK3 / Fold change vs veh, PANK3 / RFU, SH3YL1 / Fold change vs veh, SH3YL1 / RFU, ZEB2 / Fold change vs veh, ZEB2 / RFU, NRIP1 / Fold change vs veh, NRIP1 / RFU, PTTG1IP / Fold change vs veh, PTTG1IP / RFU, CAPN2 / Fold change vs veh, CAPN2 / RFU, MED14 / Fold change vs veh, MED14 / RFU, SNORA58 / Fold change vs veh, SNORA58 / RFU, C1orf63 / Fold change vs veh, C1orf63 / RFU, LRRFIP1 / Fold change vs veh, LRRFIP1 / RFU, NDUFAF7 / Fold change vs veh, NDUFAF7 / RFU, SLC12A2 / Fold change vs veh, SLC12A2 / RFU, IBTK / Fold change vs veh, IBTK / RFU, ESF1 / Fold change vs veh, ESF1 / Fold change vs veh, TMEM50B / RFU, TAOK1 / Fold change vs veh, TAOK1 / RFU, ACBD3 / Fold change vs veh, ACBD3 / RFU, TMA16 / Fold change vs veh, TMA16 / RFU, RWDD3 / Fold change vs veh, RWDD3 / RFU, BCAT1 / Fold change vs veh, BCAT1 / RFU, EDEM3 / Fold change vs veh, EDEM3 / RFU, TMEM33 / Fold change vs veh, TMEM33 / RFU, WDR75 / Fold change vs veh, WDR75 / RFU, AHCTF1 / Fold change vs veh, AHCTF1 / RFU, TFRC / Fold change vs veh, TFRC / RFU, ZDHHC17 / Fold change vs veh, ZDHHC17 / RFU, NOM1 / Fold change vs veh, NOM1 / RFU, ARL8B / Fold change vs veh, ARL8B / RFU, ZBTB11 / Fold change vs veh, ZBTB11 / RFU, TAMM41 / Fold change vs veh, TAMM41 / RFU, KIAA1704 /// LOC100996395 / Fold change vs veh, KIAA1704 /// LOC100996395 / RFU, ING1 / Fold change vs veh, ING1 / RFU, TRMT61B / Fold change vs veh, TRMT61B / RFU, FUBP3 / Fold change vs veh, FUBP3 / RFU, TP53 / Fold change vs veh, TP53 / RFU, TNKS2 / Fold change vs veh, TNKS2 / RFU, ZFP14 / Fold change vs veh, ZFP14 / RFU, ACTR2 / Fold change vs veh, ACTR2 / RFU, PPP3R1 / Fold change vs veh, PPP3R1 / RFU, PIK3R1 / Fold change vs veh, PIK3R1 / RFU, HNRNPA1 / Fold change vs veh, HNRNPA1 / RFU, RNF170 / Fold change vs veh, RNF170 / RFU, ZNF28 / Fold change vs veh, ZNF28 / RFU, RNGTT / Fold change vs veh, RNGTT / RFU, OGT / Fold change vs veh, OGT / RFU, BRD1 / Fold change vs veh, BRD1 / RFU, MARS / Fold change vs veh, MARS / RFU, ZNF655 / Fold change vs veh, ZNF655 / RFU, FAHD1 / Fold change vs veh, FAHD1 / RFU, BDP1 / Fold change vs veh, BDP1 / RFU, LRRCC1 / Fold change vs veh, LRRCC1 / RFU, ARID1A / Fold change vs veh, ARID1A / RFU, ZNF146 / Fold change vs veh, ZNF146 / RFU, ZNF330 / Fold change vs veh, ZNF330 / RFU, GPN3 / Fold change vs veh, GPN3 / RFU, C9orf123 / Fold change vs veh, C9orf123 / RFU, N4BP2L2 / Fold change vs veh, N4BP2L2 / RFU, ARFIP1 / Fold change vs veh, ARFIP1 / RFU, FAM179B / Fold change vs veh, FAM179B / RFU, BCL10 / Fold change vs veh, BCL10 / RFU, UHRF1BP1L / Fold change vs veh, UHRF1BP1L / RFU, BET1 / Fold change vs veh, BET1 / RFU, CNOT2 / Fold change vs veh, CNOT2 / RFU, ZNF268 / Fold change vs veh, ZNF268 / Fold change vs veh, ZNF507 / RFU, DGCR2 / Fold change vs veh, DGCR2 / RFU, WDSUB1 / Fold change vs veh, WDSUB1 / Fold change vs veh, HSP90B1 /// MIR3652 / RFU, ADSS / Fold change vs veh, ADSS / RFU, GK / Fold change vs veh, GK / RFU, ZNF148 / Fold change vs veh, ZNF148 / RFU, TAF9 / Fold change vs veh, TAF9 / RFU, SLC1A5 / Fold change vs veh, SLC1A5 / RFU, SLMO2 / Fold change vs veh, SLMO2 / RFU, ABCC4 / Fold change vs veh, ABCC4 / RFU, LOC101060439 /// RAP1B / Fold change vs veh, LOC101060439 /// RAP1B / RFU, RFX7 / Fold change vs veh, RFX7 / RFU, GTPBP10 / Fold change vs veh, GTPBP10 / RFU, CNEP1R1 / Fold change vs veh, CNEP1R1 / RFU, BIVM-ERCC5 /// ERCC5 / Fold change vs veh, BIVM-ERCC5 /// ERCC5 / RFU, ILF3 / Fold change vs veh, ILF3 / RFU 11762660_at / Fold change /veh 11762660_at / RFU VCAN (11757783_s_at) / Fold change /veh VCAN (11757783_s_at) / RFU DDX43 (11728927_at) / Fold change /veh DDX43 (11728927_at) / RFU KRT8 (11758188_x_at) / Fold change /veh KRT8 (11758188_x_at) / RFU NKD1 (11759106_at) / Fold change /veh NKD1 (11759106_at) / RFU SRD5A1 (11742802_a_at) / Fold change /veh SRD5A1 (11742802_a_at) / RFU TPSAB1 /// TPSB2 (11721975_s_at) / Fold change /veh TPSAB1 /// TPSB2 (11721975_s_at) / RFU GSTM3 (11746129_a_at) / Fold change /veh GSTM3 (11746129_a_at) / RFU IL23R (11737362_x_at) / Fold change /veh IL23R (11737362_x_at) / RFU TMEM51 (11727254_a_at) / Fold change /veh TMEM51 (11727254_a_at) / RFU PIWIL2 (11732686_x_at) / Fold change /veh PIWIL2 (11732686_x_at) / RFU ORM1 (11744905_x_at) / Fold change /veh ORM1 (11744905_x_at) / RFU CCDC152 (11743942_at) / Fold change /veh CCDC152 (11743942_at) / RFU ECM1 (11717891_a_at) / Fold change /veh ECM1 (11717891_a_at) / RFU IL23R (11748794_a_at) / Fold change /veh IL23R (11748794_a_at) / RFU TNFAIP8L3 (11732012_x_at) / Fold change /veh TNFAIP8L3 (11732012_x_at) / RFU MBOAT4 (11741988_at) / Fold change /veh MBOAT4 (11741988_at) / RFU 11764193_at / Fold change /veh 11764193_at / RFU TMEM53 (11763286_at) / Fold change /veh TMEM53 (11763286_at) / RFU MAGEB2 (11727129_at) / Fold change /veh MAGEB2 (11727129_at) / RFU TMEM200A (11744735_a_at) / Fold change /veh TMEM200A (11744735_a_at) / RFU CCDC152 (11751479_a_at) / Fold change /veh CCDC152 (11751479_a_at) / RFU FAM211A (11726209_a_at) / Fold change /veh FAM211A (11726209_a_at) / RFU RGS16 (11746705_a_at) / Fold change /veh RGS16 (11746705_a_at) / RFU VCAN (11755009_s_at) / Fold change /veh VCAN (11755009_s_at) / RFU RHOB (11743442_s_at) / Fold change /veh RHOB (11743442_s_at) / RFU RGS16 (11720943_a_at) / Fold change /veh RGS16 (11720943_a_at) / RFU RGS16 (11720944_at) / Fold change /veh RGS16 (11720944_at) / RFU, VPS4B / Fold change vs veh, VPS4B / RFU, CREB1 / Fold change vs veh, CREB1 / RFU, DNAJC13 / Fold change vs veh, DNAJC13 / RFU, GNAQ / Fold change vs veh, GNAQ / RFU, CDK5R1 / Fold change vs veh, CDK5R1 / RFU, ZRANB3 / Fold change vs veh, ZRANB3 / RFU, CUL4A / Fold change vs veh, CUL4A / RFU, CCNY / Fold change vs veh, CCNY / RFU, UFL1 / Fold change vs veh, UFL1 / RFU, COG3 / Fold change vs veh, COG3 / RFU, DIAPH2 / Fold change vs veh, DIAPH2 / RFU, SKA2 / Fold change vs veh, SKA2 / RFU, AFF3 / Fold change vs veh, AFF3 / RFU, LMF1 / Fold change vs veh, LMF1 / RFU, IPO11 / Fold change vs veh, IPO11 / RFU, DFFB / Fold change vs veh, DFFB / RFU, FOXP1 / Fold change vs veh, FOXP1 / RFU, CARD8 / Fold change vs veh, CARD8 / RFU, STRN3 / Fold change vs veh, STRN3 / RFU, ADK / Fold change vs veh, ADK / RFU, RASSF2 / Fold change vs veh, RASSF2 / RFU, WIPF1 / Fold change vs veh, WIPF1 / RFU, LARP1B / Fold change vs veh, LARP1B / RFU, RASA1 / Fold change vs veh, RASA1 / RFU, RB1 / Fold change vs veh, RB1 / RFU, PPFIA1 / Fold change vs veh, PPFIA1 / RFU, MAT2A / Fold change vs veh, MAT2A / RFU, CCT5 / Fold change vs veh, CCT5 / RFU, WDR92 / Fold change vs veh, WDR92 / RFU, CUX1 / Fold change vs veh, CUX1 / RFU, TTC7A / Fold change vs veh, TTC7A / RFU, TMEM135 / Fold change vs veh, TMEM135 / RFU, DEPTOR / Fold change vs veh, DEPTOR / RFU, CPM / Fold change vs veh, CPM / RFU, DNAJB6 / Fold change vs veh, DNAJB6 / RFU, CACNA2D3 / Fold change vs veh, CACNA2D3 / RFU, DTX4 / Fold change vs veh, DTX4 / RFU, TFCP2 / Fold change vs veh, TFCP2 / RFU, GMCL1 /// GMCL1P1 / Fold change vs veh, GMCL1 /// GMCL1P1 / RFU, AEBP2 / Fold change vs veh, AEBP2 / RFU, SNHG1 /// SNORD22 /// SNORD25 /// SNORD26 /// SNORD27 /// SNORD28 /// SNORD29 /// SNORD31 / Fold change vs veh, SNHG1 /// SNORD22 /// SNORD25 /// SNORD26 /// SNORD27 /// SNORD28 /// SNORD29 /// SNORD31 / Fold change (Aza/veh), C12orf56 (ProbeSet 11735607_a_at) / Fold change (ACY-1035/veh), C12orf56 (ProbeSet 11735607_a_at) / Fold change (Aza/veh), FGFR1OP (ProbeSet 11751329_s_at) / Fold change (ACY-1035/veh), FGFR1OP (ProbeSet 11751329_s_at) / Fold change (Aza/veh), VPS36 (ProbeSet 11739960_a_at) / Fold change (ACY-1035/veh), VPS36 (ProbeSet 11739960_a_at) / RFU SYPL1 (11715823_x_at) / Fold change /veh SYPL1 (11715823_x_at) / RFU IGFBP7 (11715501_s_at) / Fold change /veh IGFBP7 (11715501_s_at) / RFU REEP3 (11722064_at) / Fold change /veh REEP3 (11722064_at) / RFU IGLL1 (11728026_x_at) / Fold change /veh IGLL1 (11728026_x_at): dose or concentration left out as unconfirmed
# Conditions: ProbeSet 11753234_a_at; LIST B
smiles,measurement,value
Nc1ccc(-c2cccs2)cc1NC(=O)c1ccc2c(c1)cc(C1CC1)n2CCN1CCOCC1 [ACY-1035],"RFU, TAMM41",55.35 RFU
